Source: US11191850B2, “Molecular probes for detection and imaging of pancreatic cancer” (Portland State University, priority 2016, dated 2021)
“Also recorded” adds a separate entry of the source.

What was measured:
[1] = UV-Vis absorption and fluorescence spectroscopy; format: physicochemical; set-up: Brightness: unit not given here
Excerpt: UV-Vis absorption and fluorescence spectroscopy. UV-Vis spectra were collected with a Cary 50 UV-Vis spectrophotometer at room temperature, using a 1-cm quartz cuvette. Fluorescence spectra were collected on a Cary Eclipse fluorescence spectrophotometer (Agilent Technologies). All absorbance spectra were reference corrected. Fluorescence spectra were corrected for the wavelength dependent response of the R928 photomultiplier tube using a manufacturer generated correction file. Quantum yields are reported as the average of multiple measurements using multiple references. Excitation emission matrices (EEMs) were collected over various spectral regions, using 5-nm step sizes for emission and 10-nm step sizes for excitation. The band pass for excitation and emission was 5 to 10 nm.
Probes 1-13 were screened for pH and solvent sensitivity. Solvent sensitivity or dependence is at least partially attributable to differences in the equilibria between tautomeric forms of the compounds in the various solvents evaluated. The fluorophore concentrations ranged from 10-15 μM. Aqueous solutions contained 10% DMSO and 12.5 mM HCl, 12.5 mM NaOH, or pH 7.4 phosphate buffer.

Capan-1 cells [2] = experiment: Cell viability by CellTiter-Blue assay; format: cell-based, human; details: Capan-1, 24 h incubation, read-out: IC50 (cytotoxicity, cell viability)
Experimental: Cell culture. The human PDAC cell line Capan-1 was obtained from Dr. Rosalie Sears' laboratory and maintained in RPMI medium (Gibco) in a humid atmosphere at 37° C. with 5% CO2. All media were supplemented with 10% (v/v) fetal bovine serum (FBS), and 1% (v/v) penicillin/streptomycin. The cell viability was determined by Cell Titer-Blue® assay (Promega Corporation). Monolayers of 10^4 Capan-1 cells were seeded in triplicate in 96 well plates and incubated with decreasing concentration from 100 μM of each compound in growth media containing 10% FBS. After 24 h incubation time, 20 μL of CellTiter-Blue® reagent was added into each well, and culture cells were incubated for additional 2 h. Fluorescence intensity in each well was recorded at 560/590 nm in a SpectraMax® M5 Microplate Reader (Molecular Devices, LLC). The half maximal inhibitory concentration (IC50) of these three compounds were determined from interpolating values in the graph (% cell viability vs. fluorophore concentration). For comparison of cellular uptake rate in Capan-1 cells, absorbance of media was measured as background, and absorbance of supernatant was obtained to determine the cellular uptake by using absorbance of 10 μM fluorophore in cell free media as standard reference.
In vitro cell viability was assessed for compounds 2, 12 and 13 in a representative PDAC cell line, Capan-1. […]

Capan-1 cells [3] = experiment: Subcellular localization by live cell imaging with organelle trackers; format: cell-based, human; details: Capan-1, 0.5 μM, 1 h incubation
Experimental: In vitro live cell imaging. Monolayers of 10^4 Capan-1 cells were seeded in triplicate in 8 well plates and incubated for 24 h in growth media containing 10% FBS and allowed to attach. For subcellular colocalization experiments, media was extracted and cells were washed with PBS, and phenol red-free growth medium was added to each well. Organelle trackers were added to each well, and incubated with the compound (final concentration 0.5 μM) of interest for 1 h. Cells were then washed with PBS and then fixed with 2% paraformaldehyde (PFA). Fluorescence microscopy was carried out using a Zeiss inverted microscope with an Axioscan fluorescence camera for imaging. Final concentration of organelle trackers used in this experiments, DAPI (4,6-diamidino-2-phenylindole) 0.5 μM, MitoTracker® Green (benzoxazolium 2-[3-[5,6-dichloro-1,3-bis[[4-(chloromethyl)-phenyl]methyl]-1,3-dihydro-2H-benzimidazol-2-ylidene]-1-propenyl]-3-methyl-chloride 201860-17-5v, ThermoFisher Scientific) 0.5 μM, and ER-Tracker™ Green (BODIPY® FL dye and glibenclamide; ThermoFisher Scientific) 1 μM.
The subcellular localization of 2, 12 and 13 was investigated in Capan-1 cells after 1 h incubation time. […] FIGS. 6A, 7A, and 8A show the red fluorescence of the three compounds, respectively, as well as blue fluorescence with DAPI (4,6-diamidino-2-phenylindole) FIGS. 6C, 7C, 8C) and green fluorescence with organelle-specific fluorescent probes—ER-Tracker™ Green (BODIPY® FL dye and glibenclamide; ThermoFisher Scientific) (FIGS. 6E, 7E, 8E) and MitoTracker® Green (benzoxazolium 2-[3-[5,6-dichloro-1,3-bis[[4-(chloromethyl)-phenyl]methyl]-1,3-dihydro-2H-benzimidazol-2-ylidene]-1-propenyl]-3-methyl-chloride201860-17-5v; ThermoFisher Scientific) (FIGS. 6G, 7G, 8G). Also shown are composite overlays of (i) phase contrast+compound fluorescence (FIGS. 6B, 7B, 8B), (ii) DAPI+compound fluorescence (FIGS. 6D, 7D, 8D), (iii) DAPI+ER-Tracker™ Green+compound fluorescence (FIGS. 6F, 7F, 8F), and (iv) DAPI+MitoTracker® Green+compound fluorescence (FIGS. 6H, 7H, 8H).

PDAC tumor tissue = experiment: Intraoperative fluorescence imaging and ex vivo microscopy in PDAC tumor bearing mice; set-up: species or system mouse; details: 100 nmol systemic, n=5 PDAC mice, monitored over 1.5 h
Experimental: Systemic administration of fluorescent compounds. […] Fluorophores were diluted in PBS.
In vivo biodistribution imaging.
Ex vivo fluorescence microscopy, pathology, and immunofluorescence staining. Resected pancreas tissue from compound 12 in vivo biodistribution studies with PDAC tumor bearing mice was fixed with 2% PFA for 12 h, flash frozen in optimal cutting temperature (OCT) compound with liquid nitrogen, and stored at −80° C. Cryosections were cut at 10 μm onto Superfrost Plus slides (Fisherbrand, Fisher Scientific). Slides were mounted with Fluoromount-G (Southern Biotech, Birmingham, Ala.) and coverslipped. […] Images were acquired on an Axio Observer inverted fluorescence microscope (Zeiss, Thornwood, N.Y.) at 10, 20, or 40× magnification. […] Color images were collected using an Axiocam 105 camera (Zeiss) and fluorescence images were collected using an Axiocam 506 camera (Zeiss) where a 605±35 nm or 525±25 nm bandpass emission filter was used for compound 12 or Atto 488 fluorescence image collection, respectively.
Compound 12 was systemically administered to n=5 genetically modified PDAC mice. Pancreas specific fluorescence was monitored over 1.5 h. […] FIGS. 12B and 12C show real-time intraoperative fluorescence imaging of compound 12 in the PDAC mice. […]

pancreas tissue = experiment: Ex vivo staining of pancreas tissue from healthy and PDAC mice; set-up: species or system mouse
Excerpt: Thus 12 enabled ex vivo staining to distinguish the features of healthy and PDAC tissue.

healthy CD-1 mice = experiment: In vivo biodistribution imaging after systemic administration
Experimental: Animals. Approval for the use of all animals in this study was obtained from the Institutional Animal Care and Use Committee (IACUC) at Oregon Health and Science University (OHSU). Male CD-1 mice weighing 22-24 g were purchased from Charles River Laboratories (Wilmington, MA). […] All animals were placed on 5V75 chlorophyll free diet from TestDiet (St. Louis, Mo.) 1 week prior to any imaging studies. Prior to surgery, mice were anaesthetized with 100 mg/kg ketamine and 10 mg/kg xylazine (Patterson Veterinary, Devens, Mass.). The peritoneal cavity was surgically exposed by removal of overlaying skin and muscle tissue to image fluorophore biodistribution following intravenous injection.
Intraoperative fluorescence imaging system. In vivo murine biodistribution images and macroscopic images of resected tissues were acquired using a custom-built small animal imaging system capable of real time color and fluorescence imaging. The imaging system consists of a QImaging EXi Blue monochrome camera (Surrey, British Columbia, Calif.) for fluorescence detection with a removable Bayer filter for collecting co-registered color and fluorescence images. A PhotoFluor II light source (89 North, Burlington, Vt.) was focused onto the surgical field through a liquid light guide and used unfiltered for white light illumination. […] All filters were obtained from Chroma technology (Bellows Falls, Vt.). Camera exposure times ranged from 50 to 200 ms for fluorescence image collection.
Systemic administration of fluorescent compounds. […] Fluorophores were diluted in PBS. For comparison with previous studies, 120 nmol Methylene Blue was injected systemically. Mice were administered blank PBS for control images (n=3 mice per group, 5 groups).
In vivo biodistribution imaging. […] The peritoneal cavity was exposed and images were collected so that the bladder, adipose tissue, intestine, kidney, liver, muscle, pancreas, spleen, and stomach were visible within the field of view. For initial biodistribution studies images were collected immediately after injection and at 5, 15, 30, 60, 120, and 240 min following injection. […] Vehicle injected control animals were imaged on the same time course as fluorophore injected animals for initial testing or immediately following injection only for studies involving MB or PDAC tumor bearing mice to assess tissue autofluorescence for comparison to injected animals.
Fluorophore biodistribution kinetics were measured using region of interest analysis on images collected of the peritoneal cavity. Mean fluorescence intensities in each organ or tissue type were measured from images collected at each time point. All intensities were normalized to the muscle intensity at that time point by dividing by the measured muscle intensity. Using the normalized fluorescence intensities for each organ or tissue type, mean intensities were calculated for each group.
Upon completion of initial biodistribution studies, animals were euthanized and their organs were resected.

[4] = pH 7.4 buffer, excited at 480 nm
[5] = pH 7.4 buffer, methyl ether derivatives
[6] = pH 7.4 phosphate buffer, 10% DMSO, methyl ether derivatives

SMILES: COC(=O)c1ccccc1C1=c2cc3c4c(c2Oc2c1ccc1cccc(OC)c21)CCC[N+]=4CCC3 [Compound 12, 15-methoxy-9-(2-(methoxycarbonyl)phenyl)-1,2,3,5,6,7-hexahydrobenzo[7,8]chromeno[2,3-f]pyrido[3,2,1-ij]quinolin-4-ium chloride]
- pH and solvent sensitivity of UV and fluorescence spectra ([1]; 10-15 μM, aqueous 10% DMSO with HCl, NaOH or pH 7.4 buffer, various solvents): insensitive to variations in pH or solvent
- Quantum yield [1, 4]: 11.38%
- λmax em [1, 4]: 622 nm
- Brightness [1, 5]: 2022
- Stokes shift [1, 5]: 40 nm
- Extinction coefficient [1, 6]: 17764 M⁻¹ cm⁻¹
- λmax abs [1, 6]: 582 nm
- IC50 (Capan-1 cells [2]): 17.8 µM
- site of intracellular localization (Capan-1 cells [3]): extensive accumulation in the mitochondria
- accumulation in PDAC tumor tissue vs surrounding tissue (PDAC tumor tissue): significantly higher than in the surrounding healthy tissue; also recorded: significantly higher than in the surrounding tissues and specific for the malignant cells
- ex vivo staining localization, cancerous (PDAC) tissue (pancreas tissue; PDAC mouse pancreas): localized in the PDAC-associated ductal epithelial cells
- ex vivo staining localization, healthy mouse pancreas tissue (pancreas tissue; healthy mouse pancreas): uptake of 12 in its abundant acinar cell population
- clearance route and rate (healthy CD-1 mice; 100 nmol i.v. (MB 120 nmol)): both renal and hepatic clearance; also recorded: cleared more slowly than compound 2; also recorded: greater hepatic excretion rate
- organ accumulation (in vivo biodistribution) (healthy CD-1 mice; 100 nmol i.v., 4 h distribution phase): accumulated in the kidney, pancreas, and intestine
- fluorescence SBR in the pancreas compared to surrounding organs (healthy CD-1 mice; 4-h time point): highest and most persistent fluorescence SBR in the pancreas
- uptake in normal pancreas tissue relative to MB (healthy CD-1 mice; 12 100 nmol vs MB 120 nmol, i.v.): 4 fold
- pancreas penetration / specificity (healthy CD-1 mice; normal pancreas, systemic administration): improved pancreas specificity
